# Results published in publication PMC8289286, “In Silico, In Vitro, and In Vivo Evaluation of Precipitation Inhibitors in Supersaturated Lipid-Based Formulations of Venetoclax” (Molecular Pharmaceutics, 2021).
# Where two headings read alike, the source gives them in different places.
# Key:
# [1] = Biorelevant solubility in FaSSIF and FeSSIF; type: physicochemical
# Procedure: FaSSIF and fed state simulated intestinal fluid (FeSSIF) was prepared according to the instructions by biorelevant.com. FeSSIF was used directly, whereas FaSSIF was left at room temperature for 2 h prior to usage. Excess venetoclax was added to 2 mL of biorelevant media and placed in a water bath shaker at 200 shakes/min (GLS400, Grant Instruments, UK) and 37 °C. Samples were taken after 3, 6, and 24 h and centrifuged at 21,380g and 37 °C for 15 min (Mikro 200 R, Andreas Hettich GmbH & Co. KG, Germany). The supernatant was transferred to a new sample tube and centrifuged again under identical conditions. Subsequently, the supernatant was diluted with the mobile phase before analysis by HPLC.
# The samples were analyzed using an Agilent 1200 series HPLC system (Agilent Technology Inc., US) that comprised a binary pump, degasser, autosampler, and variable wavelength detector. Data were analyzed using the software EZChrom Elite version 3.2. Venetoclax was separated from the sample matrix with a Zorbax Eclipse Plus-C18 column (5 μm, 4.6 mm × 150 mm) including a Zorbax Eclipse Plus-C18 guard column (5 μm, 4.6 mm × 12.5 mm) at 40 °C. The mobile phase consisted of (a) acetonitrile with 0.5% trifluoroacetic acid (TFA) and (b) water with 0.5% TFA at a ratio of 53:47 (a/b v/v) and was used at a flow rate of 1 mL/min. The injection volume was 20 μL and the detection wavelength was set to 316 nm. The limit of detection was 20 ng/mL and the limit of quantification (LOQ) was 65 ng/mL determined using the standard error of the y-intercept according to the International Council for Harmonization (ICH) Q2 guidelines.[34]
# [2] = Venetoclax solubility in FaSSIF and FaSSIF with dissolved PI; type: physicochemical; details: FaSSIF without PI, reference of the PI test
# Procedure: Additionally, the solubility of venetoclax was determined in FaSSIF with dissolved PI. […] 250 μL of samples were taken at 3, 6, and 24 h and filtered through a 0.2 μm syringe filter (Whatman Spartan 13/0.2), diluted with acetonitrile (containing 0.5% (v/v) TFA), and analyzed by HPLC as described above.
# [3] = design: method as in PMID 28993217; details: cited from earlier work
# [4] = cited from earlier work
# [5] = cited from earlier work; remark: listed apart in the source
smiles,measurement,setting,value
CC1(C)CCC(CN2CCN(c3ccc(C(=O)NS(=O)(=O)c4ccc(NCC5CCOCC5)c([N+](=O)[O-])c4)c(Oc4cnc5[nH]ccc5c4)c3)CC2)=C(c2ccc(Cl)cc2)C1 [venetoclax],share of a 100 mg dose dissolved in 250 mL gastrointestinal fluid at FaSSIF solubility,"[1]; FaSSIF, 100 mg dose in 250 mL",1.7%
same,solubility,"[1]; FaSSIF, 37 °C, n = 3",6.8 ± 1.8 µg/mL
same,solubility increase in the fed state (FeSSIF) over FaSSIF,"[1]; FeSSIF vs FaSSIF, 37 °C",3.9 fold
same,share of a 100 mg dose dissolved at FeSSIF solubility,"[1]; FeSSIF, 100 mg dose",6.7%
same,solubility,[2],5.2 ± 0.4 µg/mL
same,amorphous solubility in FaSSIF,[3]; pH 5.3,20.7 ± 0.5 µg/mL
same,amorphous solubility in FaSSIF,[3]; pH 6.9,33.7 ± 13.5 µg/mL
same,amorphous solubility in FeSSIF,"[3]; FeSSIF, pH 5.3",26.4 ± 0.2 µg/mL
same,amorphous solubility in FeSSIF,"[3]; FeSSIF, pH 6.9",54.6 ± 2.0 µg/mL
same,reported amorphous solubility in FeSSIF,[3]; FeSSIF,26.4 to 54.6 µg/mL
same,previously reported venetoclax bioavailability in fasted pigs,[4],17.3 ± 5.5%
same,BCS classification,[5]; based on low aqueous solubility and permeability,BCS class IV
same,log P,[5],5.5
